The text below walks through data of patent publication US7750017B2, “Heterocycles” (Bayer Schering Pharma Aktiengesellschaft, priority 2004, dated 2010).

The subject of experiment [1] is BT474 [human breast carcinoma, overexpressing HER2 (ErbB2)]. The experiment in a line: In vitro tumor cell proliferation assay (Cell Titer-Glo luminescent cell viability), BT474 cells. In kind it is cell-based. The settings on record: BT-474, 72 h, 72 hours of drug exposure, Cell Titer-Glo readout, read-out: IC50, anti-proliferative activity in BT474 cells. For orientation: In ATP-based viability assays light output follows the ATP content of the culture.

The subject of experiment [2] is A431 cells [human epidermoid carcinoma, overexpressing HER1 (EGFR, ErbB1)]. Put plainly: In vitro tumor cell proliferation assay (Cell Titer-Glo luminescent cell viability), A431 cells. To be noted: A-431, 72 h, 72 hours of drug exposure, Cell Titer-Glo readout, read-out: IC50, anti-proliferative activity in A431 cells. In kind it is cell-based.

Structures can show the parent of a compound that is named as a salt.

Usually IC50 stands for the point on the concentration scale where inhibition reaches its midpoint. Turning to `COCCNCCc1ccc2c(c1)sc1ncnc(Nc3ccc(OCc4ccccn4)c(Cl)c3)c12` [Example 86, N-[3-chloro-4-(pyridin-2-ylmethoxy)phenyl]-7-{2-[(2-methoxyethyl)amino]ethyl}[1] benzothieno[2,3-d]pyrimidin-4-amine trifluoroacetate], the IC50 in experiment [1] was not above 0.5 µM; in experiment [2], not above 5 µM.
The like results for `Clc1cc(Nc2ncnc3sc4cc(CCN5CCCC5)ccc4c23)ccc1OCc1ccccn1` [Example 87, N-[3-chloro-4-(pyridin-2-ylmethoxy)phenyl]-7-(2-pyrrolidin-1-ylethyl)[1]benzothieno[2,3-d] pyrimidin-4-amine trifluoroacetate] were, in that order, not above 5 µM and not above 50 µM.
Take `OCCNCCc1ccc2c(c1)sc1ncnc(Nc3ccc(OCc4ccccn4)c(Cl)c3)c12` [Example 88, 2-{[2-(4-{[3-chloro-4-(pyridin-2-ylmethoxy)phenyl]amino}[1]benzothieno[2,3-d]pyrimidin-7-yl)ethyl]amino}ethanol trifluoroacetate (salt)]: the IC50 in experiment [1] is not above 0.5 µM; in experiment [2], not above 50 µM.
The like results for `Clc1cc(Nc2ncnc3sc4cc(CCN5CCNCC5)ccc4c23)ccc1OCc1ccccn1` [Example 89, N-[3-chloro-4-(pyridin-2-ylmethoxy)phenyl]-7-(2-piperazin-1-ylethyl)[1]benzothieno[2,3-d] pyrimidin-4-amine trifluoroacetate] were, in that order, not above 0.5 µM and not above 50 µM.
Taken in the same sequence, the figures for `CCNCCc1ccc2c(c1)sc1ncnc(Nc3ccc(OCc4ccccn4)c(Cl)c3)c12` [Example 90, N-[3-chloro-4-(pyridin-2-ylmethoxy)phenyl]-7-[2-(ethylamino)ethyl][1]benzothieno [2,3-d]pyrimidin-4-amine trifluoroacetate] were not above 0.5 µM and not above 5 µM.
The like results for `COCCN(CCOC)CCc1ccc2c(c1)sc1ncnc(Nc3ccc(OCc4ccccn4)c(Cl)c3)c12` [Example 93, 7-{2-[bis(2-methoxyethyl)amino]ethyl}-N-[3-chloro-4-(pyridin-2-ylmethoxy)phenyl][1]benzothieno [2,3-d]pyrimidin-4-amine trifluoroacetate] were, in that order, not above 0.5 µM and not above 50 µM.
Regarding `O=C(O)Cc1ccc2c(c1)sc1ncnc(Nc3ccc(OCc4ccccn4)c(Cl)c3)c12` [Example 94, (4-{[3-chloro-4-(pyridin-2-ylmethoxy)phenyl]amino}[1]benzothieno[2,3-d]pyrimidin-7-yl)acetic acid], the values for the IC50 in experiment [1] and in experiment [2] were not above 5 µM and not above 50 µM, respectively.
As to `O=C(Cc1ccc2c(c1)sc1ncnc(Nc3ccc(OCc4ccccn4)c(Cl)c3)c12)N1CCOCC1` [Example 95, N-[3-chloro-4-(pyridin-2-ylmethoxy)phenyl]-7-(2-morpholin-4-yl-2-oxoethyl)[1]benzothieno[2,3-d]pyrimidin-4-amine], the IC50 in experiment [1] is not above 5 µM; in experiment [2] it was not above 50 µM.
The like results for `CN1CCN(C(=O)Cc2ccc3c(c2)sc2ncnc(Nc4ccc(OCc5ccccn5)c(Cl)c4)c23)CC1` [Example 96, N-[3-chloro-4-(pyridin-2-ylmethoxy)phenyl]-7-[2-(4-methylpiperazin-1-yl)-2-oxoethyl][1]benzothieno[2,3-d] pyrimidin-4-amine] were, in that order, not above 0.5 µM and not above 50 µM.
As to `O=C(Cc1ccc2c(c1)sc1ncnc(Nc3ccc(OCc4ccccn4)c(Cl)c3)c12)NCCN1CCOCC1` [Example 97, 2-(4-{[3-chloro-4-(pyridin-2-ylmethoxy)phenyl]amino}[1]benzothieno[2,3-d]pyrimidin-7-yl)-N-(2-morpholin-4-ylethyl) acetamide], the IC50 in experiment [1] was not above 0.5 µM; in experiment [2], not above 50 µM.
Taken in the same sequence, the figures for `O=C(Cc1ccc2c(c1)sc1ncnc(Nc3ccc(OCc4ccccn4)c(Cl)c3)c12)NCCOCCO` [Example 98, 2-(4-{[3-chloro-4-(pyridin-2-ylmethoxy)phenyl]amino}[1]benzothieno[2,3-d]pyrimidin-7-yl)-N-[2-(2-hydroxyethoxy)ethyl] acetamide] were not above 5 µM and not above 50 µM.
The like results for `O=C(Cc1ccc2c(c1)sc1ncnc(Nc3ccc(OCc4ccccn4)c(Cl)c3)c12)N1CCCC1` [Example 99, N-[3-chloro-4-(pyridin-2-ylmethoxy)phenyl]-7-(2-oxo-2-pyrrolidin-1-ylethyl)[1]benzothieno [2,3-d]pyrimidin-4-amine] were, in that order, not above 5 µM and not above 50 µM.
The like results for `CN(C)CCNC(=O)Cc1ccc2c(c1)sc1ncnc(Nc3ccc(OCc4ccccn4)c(Cl)c3)c12` [Example 100, 2-(4-{[3-chloro-4-(pyridin-2-ylmethoxy)phenyl]amino}[1]benzothieno[2,3-d]pyrimidin-7-yl)-N-[(2-dimethylamino)ethyl]acetamide] were, in that order, not above 0.5 µM and not above 50 µM.
Turning to `COCCN(CCOC)C(=O)Cc1ccc2c(c1)sc1ncnc(Nc3ccc(OCc4ccccn4)c(Cl)c3)c12` [Example 101, 2-(4-{[3-chloro-4-(pyridin-2-ylmethoxy)phenyl]amino}[1]benzothieno[2,3-d]pyrimidin-7-yl)-N,N-bis (2-methoxyethyl)acetamide], the IC50 in experiment [1] and in experiment [2] was not above 5 µM each time.
Take `CS(=O)(=O)CCNC(=O)Cc1ccc2c(c1)sc1ncnc(Nc3ccc(OCc4ccccn4)c(Cl)c3)c12` [Example 102, 2-(4-{[3-chloro-4-(pyridin-2-ylmethoxy)phenyl]amino}[1]benzothieno[2,3-d]pyrimidin-7-yl)-N-[2-(methylsulfonyl)ethyl] acetamide]: the IC50 was not above 0.5 µM in experiment [1] and not above 50 µM in experiment [2].
Taken in the same sequence, the figures for `COCCN(C)C(=O)Cc1ccc2c(c1)sc1ncnc(Nc3ccc(OCc4ccccn4)c(Cl)c3)c12` [Example 103, 2-(4-{[3-chloro-4-(pyridin-2-ylmethoxy)phenyl]amino}[1]benzothieno[2,3-d]pyrimidin-7-yl)-N-(2-methoxyethyl)-N-methylacetamide] were not above 5 µM and not above 50 µM.
With `COCCN1CCN(C(=O)Cc2ccc3c(c2)sc2ncnc(Nc4ccc(OCc5ccccn5)c(Cl)c4)c23)CC1` [Example 104, N-[3-chloro-4-(pyridin-2-ylmethoxy)phenyl]-7-{2-[4-(2-methoxyethyl)piperazin-1-yl]-2-oxoethyl}[1]benzothieno [2,3-d]pyrimidin-4-amine], the IC50 was not above 0.5 µM in experiment [1] and not above 50 µM in experiment [2].
On to `O=C(Cc1ccc2c(c1)sc1ncnc(Nc3ccc(OCc4ccccn4)c(Cl)c3)c12)N(CCO)CCO` [Example 105, 2(4-{[3-chloro-4-(pyridin-2-ylmethoxy)phenyl]amino}[1]benzothieno[2,3-d]pyrimidin-7-yl)-N,N-bis-(2-hydroxyethyl) acetamide], for which the IC50 in experiment [1] was not above 5 µM; in experiment [2] it was not above 50 µM.
Taken in the same sequence, the figures for `O=C(Cc1ccc2c(c1)sc1ncnc(Nc3ccc(OCc4ccccn4)c(Cl)c3)c12)NCCO` [Example 106, 2(4-{[3-chloro-4-(pyridin-2-ylmethoxy)phenyl]amino}[1]benzothieno[2,3-d]pyrimidin-7-yl)-N-(2-hydroxyethyl)acetamide] were not above 5 µM and not above 50 µM.
Take `COC[C@@H]1CCCN1C(=O)Cc1ccc2c(c1)sc1ncnc(Nc3ccc(OCc4ccccn4)c(Cl)c3)c12` [Example 107, N-[3-chloro-4-(pyridin-2-ylmethoxy)phenyl]-7-{2-[2-(methoxymethyl)pyrrolidin-1-yl]-2-oxoethyl}[1]benzothieno[2,3-d] pyrimidin-4-amine]: the IC50 in experiment [1] and in experiment [2] was not above 5 µM throughout.
`O=C(Cc1ccc2c(c1)sc1ncnc(Nc3ccc(OCc4ccccn4)c(Cl)c3)c12)N1CCC[C@@H]1CO` [Example 108, {1-[(4-{[3-chloro-4-(pyridin-2-ylmethoxy)phenyl]amino}[1]benzothieno[2,3-d]pyrimidin-7-yl)acetyl]pyrrolidin-2-yl}methanol]: the IC50 in experiment [1] and in experiment [2] was not above 5 µM throughout.
Regarding `NS(=O)(=O)OCCc1ccc2c(c1)sc1ncnc(Nc3ccc(OCc4ccccn4)c(Cl)c3)c12` [Example 109, 2-(4-{[3-chloro-4-(pyridin-2-ylmethoxy)phenyl]amino}[1]benzothieno[2,3-d]pyrimidin-7-yl)ethyl sulfamate], the IC50 is not above 0.5 µM in experiment [1] and not above 5 µM in experiment [2].
Take `Oc1ccc2c(c1)sc1ncnc(Nc3ccc(OCc4ccccn4)c(Cl)c3)c12` [Example 110, 4-{[3-chloro-4-(pyridin-2-ylmethoxy)phenyl]amino}[1] benzothieno[2,3-d]pyrimidin-7-ol]: the IC50 in experiment [1] was not above 5 µM; in experiment [2], not above 50 µM.
Taken in the same sequence, the figures for `OC[C@@H](O)COc1ccc2c(c1)sc1ncnc(Nc3ccc(OCc4ccccn4)c(Cl)c3)c12` [Example 111, (2R)-3-[(4-{[3-chloro-4-(pyridin-2-ylmethoxy)phenyl]amino}[1]benzothieno[2,3-d]pyrimidin-7-yl)oxy]propane-1,2-diol] were not above 0.5 µM and not above 50 µM.
With `OC[C@H](O)COc1ccc2c(c1)sc1ncnc(Nc3ccc(OCc4ccccn4)c(Cl)c3)c12` [Example 112, (2S)-3-[(4-{[3-chloro-4-(pyridin-2-ylmethoxy)phenyl]amino}[1]benzothieno[2,3-d]pyrimidin-7-yl)oxy]propane-1,2-diol], the IC50 in experiment [1] was not above 0.5 µM; in experiment [2], not above 5 µM.
The like results for `Fc1cccc(Cn2ncc3cc(Nc4ncnc5sc6cc(Br)ccc6c45)ccc32)c1` [Example 113, 7-bromo-N-[1-(3-fluorobenzyl)-1H-indazol-5-yl][1]benzothieno [2,3-d]pyrimidin-4-amine] were, in that order, not above 5 µM and not above 50 µM.
Taken in the same sequence, the figures for `C=Cc1ccc2c(c1)sc1ncnc(Nc3ccc4c(cnn4Cc4cccc(F)c4)c3)c12` [Example 114, N-[1-(3-fluorobenzyl)-1H-indazol-5-yl]-7-vinyl[1]benzothieno[2,3-d] pyrimidin-4-amine] were not above 0.5 µM and not above 50 µM.
